From patent US20060128015A1, “Small hepatocyte-rich colonies, process for preparing the colonies, process for maturating the colonies into liver tissue and method of estimating effects of drug by using matured small hepatocyte-rich colonies” (priority 2001, published 2006)
Where two headings read alike, the source gives them in different places.

Tests used:
[1] = tested on: CYP2B1; experiment: CYP2B1 induction capacity in matured small hepatocyte-rich colonies (Western blot); type: cell-based, rat; settings: 24 hours after addition, matured hepatocytes = 100%, 0 mM gave 30.8
[2] = tested on: CYP4A1; experiment: CYP4A1 induction capacity in matured small hepatocyte-rich colonies (Western blot); type: cell-based, rat; settings: 24 hours, matured hepatocytes = 100%, control (0.5% DMSO) 74.1
[3] = tested on: CYP3A2; experiment: CYP3A2 induction capacity in matured small hepatocyte-rich colonies (Western blot); type: cell-based, rat; settings: 24 hours, matured hepatocytes = 100%, control (0.5% ethanol) 94.9
Protocol: (§1) About 200 to 250/cm^2 of the small hepatocyte colonies prepared in Example 2 were placed on a culture dish (diameter: 60 mm).
(§2) After the culture in a culture medium (1) (DMEM, 10% FBS, 10 mM nicotinamide, 1 mM ascorbic acid 2-phosphate, 10 ng/ml EGF, 10^−7 M dexamethasone, 0.5 μg/ml insulin, penicillin and streptomycin) for 12 to 24 hours, the culture medium was exchanged with a serum-free culture medium (2) (DMEM, 10 mM nicotinamide, 1 mM ascorbic acid 2-phosphate, 10 ng/ml EGF, 10^−7 M dexamethasone, 0.5 μg/ml insulin, penicillin, streptomycin and 1% DMSO). After the culture for additional 10 days while the culture medium was exchanged every other day, Matrigel diluted to 500 μg/ml with the culture medium was placed on the cells. 48 hours after the addition of Matrigel, the culture medium was exchanged, and the culture was continued by using DMSO-free culture medium (2) for 4 days. 6 days after the addition of Matrigel, drugs shown in the following Tables 3 to 6 were added in a concentration shown in the same Tables thereto, respectively. 24 hours after the addition of the drug, the cells were recovered.
(§3) After the proteins were separated with 10% SDS-PAGE, the intended protein was stained on the membrane by Western blot. The intensity of the band on the blot was digitized by a densitometer.
(§4) The primary antibodies used were goat anti-CYP2B 1 antibody (diluted to 1/300), goat anti-CYP3A2 antibody (diluted to 1/300), goat anti-CYP2E1 antibody (diluted to 1/1000) and goat anti-CYP4A1 antibody (diluted to 1/1000) (all bought from Daiichi Kagaku Yakuhin). The secondary antibodies were HRP-conjugated anti-goat/sheep Ig (diluted to 1/5000) bought from DAKO. The chromogenic substrate was Super Signal West Dura (chemiluminescence) purchased from Pierce.
(§5) Tables 3 to 6 show the relative activity of each enzyme as the induction capacity of each drug for the enzyme, wherein the activity of each enzyme in matured hepatocytes is defined as 100%. Pregnenolone was used in the form of a solution containing 0.5% ethanol, and clofibrate was used in the form of a solution containing 0.5% DMSO.

[4] = tested on: CYP2E1; settings: 24 hours after addition, matured hepatocytes = 100%, 0 mM gave 74.1
Protocol: as §1, §2, §3, §4, §5

**Q.** For CCC1(c2ccccc2)C(=O)NC(=O)NC1=O [Phenobarbital], which “CYP2B1 induction capacity (%)” value ([1]; 0.75 mM) is on record?
**A.** 37.4%

**Q.** What about the “CYP2B1 induction capacity (%)” value ([1]; 1.5 mM) of the same compound?
**A.** 47.9%

**Q.** And the “CYP2B1 induction capacity (%)” value ([1]; 3.0 mM)?
**A.** 46.9%

**Q.** What about the “CYP2B1 induction capacity (%)” value ([1]; 4.5 mM) of the same compound?
**A.** 55.0%

**Q.** How did the “CYP4A1 induction capacity (%)” value ([2]; 0.1 mM in 0.5% DMSO) turn out when CCOC(=O)C(C)(C)Oc1ccc(Cl)cc1 [Clofibrate] was run?
**A.** 76.5%

**Q.** And the “CYP4A1 induction capacity (%)” value ([2]; 0.25 mM in 0.5% DMSO)?
**A.** 82.4%

**Q.** And the “CYP4A1 induction capacity (%)” value ([2]; 0.5 mM in 0.5% DMSO)?
**A.** 98.8%

**Q.** And the “CYP4A1 induction capacity (%)” value ([2]; 0.75 mM in 0.5% DMSO)?
**A.** 86.4%

**Q.** What does the source list for CC(=O)[C@H]1CC[C@H]2[C@@H]3CC=C4C[C@@H](O)CC[C@]4(C)[C@H]3CC[C@]12C [Pregnenolone]?
**A.** CYP3A2 induction capacity (%) ([3]; 0.5 × 10^−3 mM in 0.5% ethanol): 115.5%; CYP3A2 induction capacity (%) ([3]; 1.0 × 10^−3 mM in 0.5% ethanol): 141.0%; CYP3A2 induction capacity (%) ([3]; 2.0 × 10^−3 mM in 0.5% ethanol): 148.1%; CYP3A2 induction capacity (%) ([3]; 5.0 × 10^−3 mM in 0.5% ethanol): 153.2%

**Q.** CCO [Ethanol] was tested. Which “CYP2E1 induction capacity (%)” value ([4]; 250 mM) did it give?
**A.** 76.5%

**Q.** What about the “CYP2E1 induction capacity (%)” value ([4]; 500 mM) of the same compound?
**A.** 82.4%

**Q.** And the “CYP2E1 induction capacity (%)” value ([4]; 750 mM)?
**A.** 98.8%

**Q.** And the “CYP2E1 induction capacity (%)” value ([4]; 1000 mM)?
**A.** 86.4%
